Measurements taken from article PMC5052559, “A fragment-based approach applied to a highly flexible target: Insights and challenges towards the inhibition of HSP70 isoforms” (Scientific Reports, 2016).

Tests used:
S275W HSC70-NBD = target: T1, S275W HSC70-NBD (Homo sapiens, UniProt P11142, S275W); assay: SPR binding to S275W HSC70-NBD mutant
T1 construct: WT HSPA8 (HSC70) residues 1 to 381; GST (N, cleaved yes); made in house; host or cells: E. coli BL21-AI (expressed as described for FL-HSP72)
Description: (§1) SPR experiments were carried out using a Biacore T200 (GE Healthcare) at 25 °C. Amine coupling chemistry was used to immobilise the HSC70 NBD domain and S275W, S275F and S275A HSC70-NBD mutant proteins on a carboxymethyl-5′-dextran (CM5) sensor chip. The chip’s surface was activated with a 10 min injection of a 1:1 mixture of 100 mM N-hydroxysuccinimide and 400 mM 1-ethyl-3-(3-dimethylaminopropyl)-carbodiimide. […] The remaining activated groups on the surface were blocked with a 7 min injection of 1 M ethanolamine at pH 8.5. […] Flow cell one was left unmodified as the reference surface.
(§2) In addition, a DMSO correction curve, prepared as described in the GE manual, was used to correct the effects of the solvent on signal intensity. Raw SPR data from the single point screen was processed and analysed using Pipeline Pilot version 8.0.1.500[37]. Firstly, the reported binding level for each fragment was corrected by subtraction of the buffer blank.
(§3) The initial fragment hits were further investigated in a three-point concentration-response experiment against freshly immobilised WT HSC70-NBD and the S275W HSC70-NBD mutants using the same experimental protocol as for the primary screen. Compound dilutions of 50, 100 and 200 μM were generated using the ECHO 550.

HSP72 = target: T2, HSP72 (Homo sapiens, UniProt P0DMV8); assay: Ligand observed NMR (CPMG) binding to HSP72 with ATP competition; details: 0.5 mM compound, 20 µM HSP72, ± 100 µM ATP; 1D CPMG
T2 construct: 6xHis followed by HRV 3C protease site (N); made in house; host or cells: E. coli BL21-AI
Description: Ligand observed NMR experiments
NMR experiments were conducted at a 1H frequency of 500 MHz using a Bruker Avance 500 spectrometer (Bruker, […]) equipped with a 1.7 mm TXI probe. All data were acquired and processed using Bruker Topspin 3.2. The Relaxation edited 1H-NMR spectrum was acquired at 295K using the CPMG sequence with a spin-lock time of 600 ms. The water signal was suppressed using presaturation during relaxation delay (2 s) and by using the Watergate sequence subsequent to the CPMG sequence. For each spectrum 64 transients were acquired. The three samples for which spectra were collected consisted of 50 mM phosphate buffer at pH 7.5, 10% (v/v) D2O and 0.5 mM compound 30, 0.5 mM compound 30 in the presence of 20 µM HSP72, and 0.5 mM compound 30 in the presence of 20 µM HSP72 and 100 µM ATP respectively (see Figure S 8).

WT HSC70-NBD = target: T3, WT HSC70-NBD (Homo sapiens, UniProt P11142); assay: SPR binding to wild-type HSC70-NBD; details: for Kd: SPR, 25 °C; for LE (ligand efficiency): calculated using the SPR Kd on WT HSC70-NBD
T3 construct: WT HSPA8 (HSC70) residues 1 to 381; GST (N, cleaved yes); made in house; host or cells: E. coli BL21-AI (expressed as described for FL-HSP72)
Description: as §1, §2, §3

S275F HSC70-NBD = target: T4, S275F HSC70-NBD (Homo sapiens, UniProt P11142, S275F); assay: SPR binding to S275F HSC70-NBD mutant
T4 construct: WT HSPA8 (HSC70) residues 1 to 381; GST (N, cleaved yes); made in house; host or cells: E. coli BL21-AI (expressed as described for FL-HSP72)
Description: SPR experiments were carried out using a Biacore T200 (GE Healthcare) at 25 °C. Amine coupling chemistry was used to immobilise the HSC70 NBD domain and S275W, S275F and S275A HSC70-NBD mutant proteins on a carboxymethyl-5′-dextran (CM5) sensor chip. The chip’s surface was activated with a 10 min injection of a 1:1 mixture of 100 mM N-hydroxysuccinimide and 400 mM 1-ethyl-3-(3-dimethylaminopropyl)-carbodiimide. The HSC70 proteins (70 μg/mL in 10 mM sodium acetate, 750 μM ADP, pH 5.0) were immobilised on the surface over a 10 min injection period. The remaining activated groups on the surface were blocked with a 7 min injection of 1 M ethanolamine at pH 8.5. For all the above procedures the flow rate was maintained at 10 μL/min and a 1x phosphate buffered saline running buffer (PBS running buffer: 10 mM NaHPO4/NaH2PO4 pH 7.4, 2.7 mM KCl, 137 mM NaCl) was used during immobilisation. Approximately ~13,000 response units (RU) of protein could be routinely captured on the CM5 chip on flow cells two to four. Flow cell one was left unmodified as the reference surface. Our in-house fragment library of 1962 fragments at a stock concentration of 100 mM in 100% (v/v) was screened. SPR screening plates were prepared by dispensing of 0.1 μL of each fragment in 384-well polypropylene V-bottomed plates (Greiner) using an ECHO 550 acoustic liquid dispenser (Labcyte) followed by addition of fresh DMSO and running buffer to give a final fragment concentration of 125 μM in 5% (v/v) DMSO in an assay volume of 80 μL.
The full fragment screen was carried out against freshly immobilised WT-HSC70 NBD and the S275W and S275F HSC70-NBD mutants, using the same experimental setting as for the clean screen and a final fragment concentration of 125 μM. Injections of running buffer and of 125 μM adenosine, which was used as a positive control to monitor the health of the protein, were carried out at intervals of 35 cycles throughout the screen. In addition, a DMSO correction curve, prepared as described in the GE manual, was used to correct the effects of the solvent on signal intensity. Raw SPR data from the single point screen was processed and analysed using Pipeline Pilot version 8.0.1.500[37]. Firstly, the reported binding level for each fragment was corrected by subtraction of the buffer blank. Secondly, the values were corrected for the molecular weight of each fragment and the binding was normalised to the binding level observed for the closest adenosine control. […] However, fragments with a binding level exceeding two times the theoretical Rmax were excluded, as we considered this an indication of superstoichiometric binding. Finally, fragments showing preferred binding to wild-type HSC70-NBD versus the HSC70-NBD mutants with a blocked adenine sub pocket were identified by plotting the binding levels of the fragments to wild-type HSC70-NBD against the binding levels of the respective mutant HSC70-NBD variants and added to the primary hit list. In total this procedure yielded 54 initial fragment hits.

HSC70-NBD S275A mutant = target: T5, HSC70-NBD S275A mutant (Homo sapiens, UniProt P11142, S275A); assay: SPR binding to S275A HSC70-NBD mutant; details: n = 3
T5 construct: WT HSPA8 (HSC70) residues 1 to 381; GST (N, cleaved yes); made in house; host or cells: E. coli BL21-AI (expressed as described for FL-HSP72)
Description: SPR experiments were carried out using a Biacore T200 (GE Healthcare) at 25 °C. Amine coupling chemistry was used to immobilise the HSC70 NBD domain and […], […] and […] HSC70-NBD mutant proteins on a carboxymethyl-5'-dextran (CM5) sensor chip. […] The remaining activated groups on the surface were blocked with a 7 min injection of 1 M ethanolamine at pH 8.5. For all the above procedures the flow rate was maintained at 10 μL/min and a 1x phosphate buffered saline running buffer (PBS running buffer: 10 mM NaHPO4/NaH2PO4 pH 7.4, 2.7 mM KCl, 137 mM NaCl) was used during immobilisation. Approximately ~13,000 response units (RU) of protein could be routinely captured on the CM5 chip on flow cells two to four. Flow cell one was left unmodified as the reference surface. Our in-house fragment library of 1962 fragments at a stock concentration of 100 mM in 100% (v/v) was screened. SPR screening plates were prepared by dispensing of 0.1 μL of each fragment in 384-well polypropylene V-bottomed plates (Greiner) using an ECHO 550 acoustic liquid dispenser (Labcyte) followed by addition of fresh DMSO and running buffer to give a final fragment concentration of 125 μM in 5% (v/v) DMSO in an assay volume of 80 μL. The initial fragment hits were further investigated in a three-point concentration-response experiment against freshly immobilised WT HSC70-NBD and the […] HSC70-NBD mutants using the same experimental protocol as for the primary screen. Compound dilutions of 50, 100 and 200 μM were generated using the ECHO 550. A confirmed hit was defined as a fragment giving greater than 10% response compared to adenosine and these were prioritised on the basis of their concentration response, ratio of experimental and theoretical Rmax, and shape of the sensorgrams, and expected fast on/fast off binding kinetics. […] HSC70-NBD mutant. […] Nucleotides were dissolved in double distilled water to give 10 mM stock solutions, then diluted 40X with DMSO and tested using a concentration range between 0.0625 μM and 2.5 μM.

HSP70 = target: HSP70; design: method as in PMID 19256508; details: read-out: SPR Kd; cited from earlier work
[1] = mean ± standard deviation or standard error, triplicate unless marked duplicate/single
[2] = mean ± SD, No binding = binding level ≤10RU at 1mM

T5 sequence (P11142 1-381 S275A): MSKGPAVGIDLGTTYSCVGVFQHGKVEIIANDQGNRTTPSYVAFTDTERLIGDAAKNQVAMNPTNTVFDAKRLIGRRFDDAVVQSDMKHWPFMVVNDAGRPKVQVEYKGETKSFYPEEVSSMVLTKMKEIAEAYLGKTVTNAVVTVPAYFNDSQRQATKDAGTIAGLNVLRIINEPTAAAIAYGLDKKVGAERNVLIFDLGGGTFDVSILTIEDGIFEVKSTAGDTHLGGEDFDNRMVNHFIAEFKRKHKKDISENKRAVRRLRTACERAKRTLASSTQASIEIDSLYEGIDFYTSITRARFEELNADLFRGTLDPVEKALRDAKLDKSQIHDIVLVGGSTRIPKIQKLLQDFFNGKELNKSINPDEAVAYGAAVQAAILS
T3 sequence (P11142 1-381): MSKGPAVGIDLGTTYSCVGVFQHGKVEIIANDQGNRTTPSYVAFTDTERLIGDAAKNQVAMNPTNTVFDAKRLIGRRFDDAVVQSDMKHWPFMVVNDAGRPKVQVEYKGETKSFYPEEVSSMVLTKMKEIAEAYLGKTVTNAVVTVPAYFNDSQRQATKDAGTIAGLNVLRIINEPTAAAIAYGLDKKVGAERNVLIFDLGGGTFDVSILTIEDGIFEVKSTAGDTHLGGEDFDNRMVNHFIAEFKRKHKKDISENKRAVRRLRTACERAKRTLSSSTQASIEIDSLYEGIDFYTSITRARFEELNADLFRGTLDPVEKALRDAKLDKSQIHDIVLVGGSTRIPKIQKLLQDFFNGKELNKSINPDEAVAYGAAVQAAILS
T4 sequence (P11142 1-381 S275F): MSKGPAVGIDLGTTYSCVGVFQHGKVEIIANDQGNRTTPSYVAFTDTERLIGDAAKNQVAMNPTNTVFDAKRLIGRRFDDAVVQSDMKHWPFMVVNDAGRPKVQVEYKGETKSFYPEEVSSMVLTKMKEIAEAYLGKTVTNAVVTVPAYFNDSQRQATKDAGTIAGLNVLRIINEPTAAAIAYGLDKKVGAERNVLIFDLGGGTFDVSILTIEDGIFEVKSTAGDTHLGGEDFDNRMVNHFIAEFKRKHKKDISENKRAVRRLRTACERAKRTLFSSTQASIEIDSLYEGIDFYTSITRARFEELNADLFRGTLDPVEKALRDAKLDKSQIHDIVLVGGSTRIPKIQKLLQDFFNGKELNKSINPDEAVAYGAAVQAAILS
T1 sequence (P11142 1-381 S275W): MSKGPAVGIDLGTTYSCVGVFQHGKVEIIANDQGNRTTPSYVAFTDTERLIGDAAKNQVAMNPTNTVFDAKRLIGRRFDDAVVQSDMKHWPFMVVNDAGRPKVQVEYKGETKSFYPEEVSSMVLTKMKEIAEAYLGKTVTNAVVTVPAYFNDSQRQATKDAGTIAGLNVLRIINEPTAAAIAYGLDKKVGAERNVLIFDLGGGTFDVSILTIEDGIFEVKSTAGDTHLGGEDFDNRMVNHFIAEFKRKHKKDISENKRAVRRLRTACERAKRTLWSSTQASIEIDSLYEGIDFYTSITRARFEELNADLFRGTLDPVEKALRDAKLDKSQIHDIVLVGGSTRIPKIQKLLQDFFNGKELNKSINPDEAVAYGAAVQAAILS
T2 sequence (P0DMV8 whole entry): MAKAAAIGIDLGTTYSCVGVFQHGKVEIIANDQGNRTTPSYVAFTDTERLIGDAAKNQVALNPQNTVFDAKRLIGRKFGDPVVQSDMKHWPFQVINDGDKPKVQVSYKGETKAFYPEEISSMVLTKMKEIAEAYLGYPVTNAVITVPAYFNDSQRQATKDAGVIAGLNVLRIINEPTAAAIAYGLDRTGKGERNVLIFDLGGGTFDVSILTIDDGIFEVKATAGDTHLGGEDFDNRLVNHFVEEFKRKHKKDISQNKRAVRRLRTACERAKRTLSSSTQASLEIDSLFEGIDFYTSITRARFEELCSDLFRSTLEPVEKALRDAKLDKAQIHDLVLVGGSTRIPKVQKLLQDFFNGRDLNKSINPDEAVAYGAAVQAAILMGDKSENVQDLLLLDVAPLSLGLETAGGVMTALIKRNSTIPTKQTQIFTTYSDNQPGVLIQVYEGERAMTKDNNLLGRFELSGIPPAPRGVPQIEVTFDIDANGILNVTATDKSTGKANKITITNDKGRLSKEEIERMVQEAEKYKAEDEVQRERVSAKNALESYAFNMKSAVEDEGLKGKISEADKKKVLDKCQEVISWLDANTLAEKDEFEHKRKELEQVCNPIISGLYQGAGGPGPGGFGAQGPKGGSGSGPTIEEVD

Row | Kd S275W HSC70-NBD (S275W HSC70-NBD; single measurement) | binding to HSP72 by ligand observed NMR (HSP72) | Kd (WT HSC70-NBD; [1]) | LE (ligand efficiency) (WT HSC70-NBD) | binding to S275W HSC70-NBD mutant (in words) (S275W HSC70-NBD) | binding to S275F HSC70-NBD mutant (in words) (S275F HSC70-NBD) | Kd (WT HSC70-NBD; [2]) | Kd (HSC70-NBD S275A mutant) | Structure (SMILES) | Kd (HSP70)
1 | No binding | bind in the ATP-binding site | 75 µM | 0.20 | – | – | – | – | OC[C@H]1C[C@@H](Nc2ncnc3cccc(OCc4ccccn4)c23)[C@H](O)[C@@H]1O [Compound 30] | –
2 | – | – | – | 0.31 | abolished binding | abolished binding | 0.71 ± 0.32 µM | 5.6 ± 2.4 µM | Nc1ncnc2c1ncn2[C@@H]1O[C@H](COP(=O)(O)OP(=O)(O)O)[C@@H](O)[C@H]1O [ADP, reference compound] | –
3 | – | – | – | – | abolished binding | abolished binding | – | – | N#Cc1ccc(COC[C@H]2O[C@@H](n3c(NCc4ccc(Cl)c(Cl)c4)nc4c(N)ncnc43)[C@H](O)[C@@H]2O)cc1 [Compound 1, VER-155008] | 0.3 µM
4 | – | – | – | 0.28 | abolished binding | abolished binding | 165 µM | 1800 ± 520 µM | Nc1ncnc2c1ncn2[C@@H]1O[C@H](CO)[C@@H](O)[C@H]1O [Adenosine, adenosine, reference compound] | –

Row | Structure (SMILES) | Kd S275W HSC70-NBD (S275W HSC70-NBD; single measurement) | binding to HSP72 by ligand observed NMR (HSP72) | Kd (WT HSC70-NBD; [1]) | LE (ligand efficiency) (WT HSC70-NBD) | binding to S275W HSC70-NBD mutant (in words) (S275W HSC70-NBD) | binding to S275F HSC70-NBD mutant (in words) (S275F HSC70-NBD) | Kd (WT HSC70-NBD; [2]) | Kd (HSC70-NBD S275A mutant) | Kd (HSP70)
5 | Cc1ccc2ncnc(N)c2c1 [Compound 8] | – | – | 1400 ± 100 µM | 0.33 | reduced binding and a low degree of saturation | reduced binding and a low degree of saturation | – | – | –
6 | O=c1[nH]cnc2c1oc1ccccc12 [Compound 7] | – | – | 1700 ± 600 µM | 0.27 | reduced binding and a low degree of saturation | reduced binding and a low degree of saturation | – | – | –
7 | Nc1ncnc2c1ncn2[C@@H]1O[C@H](COP(=O)(O)OP(=O)(O)OP(=O)(O)O)[C@@H](O)[C@H]1O [ATP, reference compound] | – | – | – | 0.29 | – | – | 0.33 µM | 2.1 µM | –
